# Patent US4891432A, “Phenoxy imidazole compound” (Yamanouchi Pharmaceutical Co., Ltd., priority 1986, dated 1990)
# pIC50: −log10 of the molar value. Like-named read-outs stand apart in the source and are kept apart here.
# Tests used:
# [1] = tested on: mouse leukemia L1210 cells; assay: Effectiveness against mouse leukemia L1210 cells (in vitro test), cytotoxicity by trypan blue dye exclusion; type: cell-based; conditions: Mus musculus, read-out: IC50 (mean dose producing 50%-killing of tumor cells)
# Protocol: Effectiveness against mouse leukemia L1210 cells (in vitro test)
# A suspension of cells in culture medium was transferred into wells in a microplate in an amount of 1×10^5 L1210-cells/well. Test sample diluted with a culture medium was added to the suspension in each well, and the mixture was incubated on the medium at 37° C. for 3 days in an atmosphere of air containing 5% carbon dioxide.
# Thereafter, the incubated cells were recovered from the microplate and the number of live cells was counted by the dye exclusion test using a 0.5% solution of trypan blue and by using a hemocytometer.
# [2] = tested on: Ehrlich solid tumor; assay: Test 2: Anti-tumor test against Ehrlich solid tumor; type: in vivo, ddY/SLC mice; conditions: Mus musculus, Ehrlich, ip, 504 h, read-out: Growth Inhibition Rate; for inhibition in vivo at 100 mg/kg / inhibition in vivo at 50 mg/kg: i.p., days 1 through 9, tumor weight day 21
# Protocol: Anti-tumor test against Ehrlich solid tumor
# Ehrlich tumor cells, 2×10^6, on Day 7 after intraperitoneal transplantation to ddY/SLC mice, were subcutaneously transplanted in the left abdomen of ddY/SLC mice (5week age, male)--10 to a group. The active component was intraperitoneally administered in a definite dose 24 hours after the transplantation. (administration: once per one day; 1 through 9 days)
# (§1) Growth inhibition rate (%)=(C-T)/C×100
# T: mean tumor weight in the active component-administered group
# c: mean tumor weight in the control group
# [3] = tested on: Ehrlich solid tumor; assay: Test 5: Antitumor test against Ehrlich solid tumor; type: in vivo, ddY/SLC mice; conditions: intraperitoneal (1 to 9 days), day 21
# Protocol: Antitumor test against Ehrlich solid tumor
# Ehrlich tumor cells, 3×10^6, on Day 6 after intraperitoneal transplantation to ddY/SLC mice, were subcutaneously transplanted in the left abdomen of ddY/SLC mice (5 week age, male)--10 mice to a group (37 mice for the control group). The active component was intraperitoneally administered in a definite dose 24 hours after the transplantation, according to the scheduled shown in Table 4. The tumor growth inhibition was assessed by measuring the weight of each tumor on the 21th day after transplantation, and determining the tumor growth inhibition rate of the active component-administered group to the control group, according to the following equation.
# as §1
# (§2) T: mean tumor weight in the active-component-administered group
# (§3) C: mean tumor weight on the control group
# [4] = tested on: mouse mammalian MM-46 tumor; assay: Test 3: Test against mouse mammalian MM-46 tumor; type: in vivo, C3H/He/SLC mice; conditions: p.o. (1-6 days)
# Protocol: Test against mouse mammalian MM-46 tumor
# MM-46 tumor cells, 1×10^6, on day 6 after intraperitonal transplantation to C3 H/He/SLC mice, were intraperitoneally transplanted to C3H/He/SlC mice (6 week age, male)--10 mice to a group. The active component was orally administered in a definite dose 24 hours after the transplantation according to the schedule shown in Table 2. The tumor growth inhibition was evaluated as the percentage of the median survival day of the administered group versus that of the control group, according to the following equation.
# T: median survival day of the administered group
# C: median survival day of the control group
# [5] = tested on: mouse M5076 solid tumor; assay: Test 4: Anti-tumor test against mouse M5076 solid tumor; type: in vivo, BDF1/SLC mice; conditions: p.o. (1-9 days), day 14
# Protocol: Anti-tumor test against mouse M5076 solid tumor
# M5076 Tumor cells, 1×10^6, on day 14 after intraperitoneal transplantation to C57BL16/cRJ mice, were subcutaneously transplanted to the left abdomen of BDF1/SLC mice (8 week age, male)--10 mice to a group (20 mice for the control group). The active component was orally administered in a definite dose 24 hours after the transplantation according to the schedule shown in Table 3. The tumor growth inhibition was assessed by measuring the weight of each tumor on days 14 after the transplantation, and determining the tumor growth inhibition rate of the active component-administered group to the control group, according to the following equation.
# as §1, §2, §3
# [6] = 72 h, L1210 cells, 3 days, 37° C.
compound,measurement,setting,value
"O=c1[nH]cc(F)c(=O)[nH]1 [5-Fluorouracil, reference compound]",pIC50,"[1]; L1210, 72 h",6.39
same,inhibition in vivo at 25 mg/kg,[2],61%
same,Growth Inhibition Rate,[3]; 12.5 mg/kg,36.4%
same,Weight of Tumor,[3]; 12.5 mg/kg,2.55 ± 1.21 g
same,Growth Inhibition Rate,[3]; 25 mg/kg,45.6%
same,Weight of Tumor,[3]; 25 mg/kg,2.18 ± 0.96 g
CC(C)(CCCCOc1ccc(OCCCCCSc2nc3cccnc3[nH]2)cc1)C(N)=O [Example 44],pIC50,[1]; [6],5.43
same,inhibition in vivo at 100 mg/kg,[2],46.1%
"CCOC(=O)C(C)(C)CCCCOc1ccc(OCCCCCn2cncn2)cc1 [Example 48, ethyl 6-[p-[5-(1,2,4-triazol-1-yl)pentyloxy]phenoxy]-2,2-dimethylhexanoate]",pIC50,[1]; [6],5.26
same,inhibition in vivo at 100 mg/kg,[2],46.3%
CCCCCCCCCCNC(=O)C(C)(C)CCCCOc1ccc(OCCCCCn2ccnc2)cc1 [Example 51],pIC50,[1]; [6],6.22
same,inhibition in vivo at 50 mg/kg,[2],42.5%
CC(C)(CCCCOc1ccc(OCCCCCn2ccnc2)cc1)C(=O)NC1CCCCC1 [Example 52],pIC50,[1]; [6],5.44
same,inhibition in vivo at 100 mg/kg,[2],55.7%
CC(C)(CCCCOc1ccc(OCCCCCn2ccnc2)cc1)C(=O)Nc1ccccc1 [Example 53],pIC50,[1]; [6],5.37
same,inhibition in vivo at 100 mg/kg,[2],49.3%
"CC(C)(C#N)CCCCOc1ccc(OCCCCCn2ccnc2)cc1 [Example 55, 6-[p-[5-(1-imidazolyl)pentyloxy]phenoxy]-2,2-dimethylhexane-nitrile]",pIC50,[1]; [6],5.42
same,inhibition in vivo at 50 mg/kg,[2],63.1%
NC(=O)CCCCCOc1ccc(OCCCCCn2ccnc2)cc1 [Example 56],pIC50,[1]; [6],4.86
same,inhibition in vivo at 100 mg/kg,[2],30.2%
"O=c1[nH]c(=O)n(C2CCCO2)cc1F (stereo not drawn) [Tetrahydrofuryl-5-fluorouracil, reference compound]",Median Survival Day,[4]; 100 mg/kg,6.0 days
same,No. of 20-day Survivors,[4]; 100 mg/kg,0/10
same,T/C (median survival),[4]; 100 mg/kg,85.7%
same,Median Survival Day,[4]; 200 mg/kg,7.0 days
same,No. of 20-day Survivors,[4]; 200 mg/kg,0/10
same,T/C (median survival),[4]; 200 mg/kg,100%
same,Growth Inhibition Rate,[5]; 100 mg/kg,14.8%
same,Weight of Tumor,[5]; 100 mg/kg,0.52 ± 0.19 g
same,Growth Inhibition Rate,[5]; 200 mg/kg,39.3%
same,Weight of Tumor,[5]; 200 mg/kg,0.37 ± 0.08 g
